According to patent US20150065416A1, “NOVEL DRUG COMBINATION” (FAB PHARMA SAS, priority 2013, published 2015):
Converted amounts (≈) assume the structure as drawn. Like-named read-outs stand apart in the source and are kept apart here.

Legend:
A. baumannii isolates [1] = test: Checkerboard testing (compound (I)/antibacterial agent interaction, FIC index); assay type: cell-based, Acinetobacter baumannii; conditions: Acinetobacter baumannii, read-out: MIC
Description: Checkerboard interaction studies were performed using 5 isolates from each of the sub-groups and time kill studies were performed using 3 isolates from each sub-group.
Checkerboards (20 isolates, 5 per sub-group) were prepared so as to contain multiple concentrations of compound (I) with different additional antibacterial agents (amikacin, gentamicin, colistin, meropenem and tobramycin) as follows:
Serial two-fold dilutions of the antimicrobial agents alone or in combination in wells of 96 well microtiter plates were inoculated with the appropriate inoculum so that each well contained approximately 4-5×10^4 CFU/ml. Plates were incubated at 35° C. for 16-20 hours. Combination concentrations were tested between 0.25×MIC and 2×MIC. Growth and sterility controls were also included in each plate.
Synergy, indifference and antagonism were calculated based upon the use of the fractional inhibitory concentration (FIC) indices as described by Pillai, Moellering & Eliopoulos (2005) whereby:
Synergism=FIC index of ≦0.5 Indifference=FIC index >1 but ≦4 Additivity >0.5 to 1 Antagonism=FIC index of >4
Checkerboard studies were carried out as described in General Procedures using twenty different A. baumannii isolates with 5 per sub-group of: susceptible, amikacin-resistant, colistin-resistant and meropenem-resistant.

A. baumannii isolates [2] = test: Individual antimicrobial susceptibility testing (MIC, broth microdilution, CLSI); assay type: cell-based, Acinetobacter baumannii; conditions: for MIC50 / MIC90: Acinetobacter baumannii
Description: In the antimicrobial susceptibility testing 77 isolates of A. baumannii (from 2010) in the following sub-groups were tested: • 22 isolates generally susceptible to antimicrobial agents (“Sus”) • 20 carbapenem-resistant isolates (e.g. “MPM-R”) • 20 aminoglycoside-resistant isolates (e.g. “AMK-R”) • 15 colistin-resistant isolates. (e.g. “COL-R”)
Minimum inhibitory concentration (MIC) endpoints were determined by broth microdilution according to CLSI guidelines (CLSI, M7-A8 & M100-S22, 2012). Panels were prepared at IHMA using cation-adjusted Mueller-Hinton broth. Colonies were taken directly from a second-pass culture plate and prepared to a suspension equivalent of the 0.5 McFarland standard using normal saline.
Testing was carried out as described in the General Procedures to determine minimum inhibitory concentration (MIC) end points for compound (I), amikacin, colistin, gentamicin, meropenem and tobramycin, for 77 A. baumannii isolates. Under the “MIC (μg/ml)” heading, the first column (Range) indicates the MIC end points for the particular number (N) of isolates tested, the second column (50%) provides an estimate of the concentration that inhibits 50% (MIC50) of bacterial isolates tested, and the third column (90%) provides an estimate of the concentration that inhibits 90% of the bacterial isolates tested.

[3] = Amikacin-resistant isolates, N=20
[4] = Colistin-resistant isolates, N=15
[5] = Meropenem-resistant isolates, N=20

For `NC[C@H]1O[C@H](O[C@H]2[C@H](O)[C@@H](O[C@H]3O[C@H](CO)[C@@H](O)[C@H](N)[C@H]3O)[C@H](N)C[C@@H]2N)[C@H](N)C[C@@H]1O` [tobramycin], the MIC (A. baumannii isolates [1]; A. baumannii 441142, colistin-resistant) was greater than 1020 mg/L, the MIC (A. baumannii isolates [1]; A. baumannii 441160, colistin-resistant) was greater than 1020 mg/L and the MIC (A. baumannii isolates [1]; A. baumannii 463996, colistin-resistant) was 2 mg/L. For the same compound, the MIC (A. baumannii isolates [1]; A. baumannii 466936, colistin-resistant) was 64 mg/L, the MIC (A. baumannii isolates [1]; A. baumannii 517303, colistin-resistant) was 256 mg/L and the MIC (A. baumannii isolates [1]; A. baumannii 618649, meropenem-resistant) was 1 mg/L. The MIC (A. baumannii isolates [1]; A. baumannii 625917, meropenem-resistant) was 1 mg/L, the MIC (A. baumannii isolates [1]; A. baumannii 628760, susceptible) was 2 mg/L and the MIC (A. baumannii isolates [1]; A. baumannii 637723, amikacin-resistant) was 2 mg/L. For the same compound, the MIC (A. baumannii isolates [1]; A. baumannii 638115, amikacin-resistant) was 2 mg/L, the MIC (A. baumannii isolates [1]; A. baumannii 650216, meropenem-resistant) was 1 mg/L and the MIC (A. baumannii isolates [1]; A. baumannii 655932, amikacin-resistant) was 2 mg/L. It also gave an MIC (A. baumannii isolates [1]; A. baumannii 661954, amikacin-resistant) of 1 mg/L, an MIC (A. baumannii isolates [1]; A. baumannii 667848, meropenem-resistant) of 1 mg/L and an MIC (A. baumannii isolates [1]; A. baumannii 668116, susceptible) of 1 mg/L. For the same compound, the MIC (A. baumannii isolates [1]; A. baumannii 668239, amikacin-resistant) was 4 mg/L, the MIC (A. baumannii isolates [1]; A. baumannii 670348, susceptible) was 2 mg/L and the MIC (A. baumannii isolates [1]; A. baumannii 671050, meropenem-resistant) was 4 mg/L. The MIC (A. baumannii isolates [1]; A. baumannii 672190, susceptible) was 1 mg/L, the MIC (A. baumannii isolates [1]; A. baumannii 674340, susceptible) was 1 mg/L and the MIC50 (A. baumannii isolates [2]; All isolates, N=77) was 2 mg/L (≈ 4.28 µM). The MIC90 (A. baumannii isolates [2]; All isolates, N=77) was greater than 32 mg/L, the MIC50 (A. baumannii isolates [2]; [3]) was greater than 32 mg/L and the MIC90 (A. baumannii isolates [2]; [3]) was greater than 32 mg/L. The MIC50 (A. baumannii isolates [2]; [4]) was 32 mg/L (≈ 68.4 µM), the MIC90 (A. baumannii isolates [2]; [4]) was greater than 32 mg/L and the MIC50 (A. baumannii isolates [2]; [5]) was 4 mg/L (≈ 8.56 µM). It also gave an MIC90 (A. baumannii isolates [2]; [5]) greater than 32 mg/L, an MIC50 (A. baumannii isolates [2]; Susceptible isolates, N=22) of 1 mg/L (≈ 2.14 µM) and an MIC90 (A. baumannii isolates [2]; Susceptible isolates, N=22) of 2 mg/L (≈ 4.28 µM). For the same compound, the “MIC Range” value (A. baumannii isolates [2]; Susceptible isolates, N=22) was 0.12 to 2 mg/L.
